Experimental data published in patent publication EP0326329B1, “Quinazoline derivatives useful as insecticides” (Dow AgroSciences LLC, priority 1988, dated 1989).

System: Erysiphe graminis tritici (powdery mildew)
Assay: Greenhouse Test 1, foliar spray fungicide screen (POWD MDEW), host wheat
Type: in vivo
Details: disease control rating, 400 ppm (+++ at 100 ppm)

| SMILES | POWD MDEW |
| --- | --- |
| Fc1cccc2c(OCCc3ccccc3C(F)(F)F)ncnc12 [Example 56, 8-fluoro-4-[2-[2-(trifluoromethyl)phenyl]ethoxy]quinazoline] | +++ (+++ = 90-100% control at 100 ppm) |
| Clc1ccc2ncnc(NCCc3ccccc3Oc3ccccc3)c2c1 [Example 57, 6-chloro-N-[2-(2-phenoxyphenyl)ethyl]-4-quinazolinamine] | - (- = 0-19% control at 400 ppm) |
| CC(COc1ncnc2ccccc12)c1ccccc1 (centres unmarked) [Example 60, 4-(2-phenylpropoxy)quinazoline] | + (+ = 20-89% control at 400 ppm) |
| Fc1cccc2c(NCC(c3ccccc3)c3ccccc3)ncnc12 [Example 61, N-(2,2-diphenylethyl)-8-fluoro-4-quinazolinamine] | - (- = 0-19% control at 400 ppm) |
| CCc1ccc(CCOc2ncnc3ccccc23)cc1 [Example 65, 4-[2-(4-ethylphenyl)ethoxy]quinazoline] | +++ (+++ = 90-100% control at 100 ppm) |

System: Pyricularia oryzae (rice blast)
Assay: not given
Type: in vivo
Details: disease control rating, foliar spray, host rice; 400 ppm (+++ at 100 ppm)

| SMILES | RICE BLAST |
| --- | --- |
| Fc1cccc2c(OCCc3ccccc3C(F)(F)F)ncnc12 [Example 56, 8-fluoro-4-[2-[2-(trifluoromethyl)phenyl]ethoxy]quinazoline] | +++ (+++ = 90-100% control at 100 ppm) |
| Clc1ccc2ncnc(NCCc3ccccc3Oc3ccccc3)c2c1 [Example 57, 6-chloro-N-[2-(2-phenoxyphenyl)ethyl]-4-quinazolinamine] | - (- = 0-19% control at 400 ppm) |
| CC(COc1ncnc2ccccc12)c1ccccc1 (centres unmarked) [Example 60, 4-(2-phenylpropoxy)quinazoline] | +++ (+++ = 90-100% control at 100 ppm) |
| Fc1cccc2c(NCC(c3ccccc3)c3ccccc3)ncnc12 [Example 61, N-(2,2-diphenylethyl)-8-fluoro-4-quinazolinamine] | - (- = 0-19% control at 400 ppm) |
| CCc1ccc(CCOc2ncnc3ccccc23)cc1 [Example 65, 4-[2-(4-ethylphenyl)ethoxy]quinazoline] | +++ (+++ = 90-100% control at 100 ppm) |

System: Puccinia recondita tritici (leaf rust)
Assay: Greenhouse Test 1, foliar spray fungicide screen (LEAF RUST), host wheat
Type: in vivo
Details: disease control rating, 400 ppm (+++ at 100 ppm)

| SMILES | LEAF RUST |
| --- | --- |
| Fc1cccc2c(OCCc3ccccc3C(F)(F)F)ncnc12 [Example 56, 8-fluoro-4-[2-[2-(trifluoromethyl)phenyl]ethoxy]quinazoline] | +++ (+++ = 90-100% control at 100 ppm) |
| Clc1ccc2ncnc(NCCc3ccccc3Oc3ccccc3)c2c1 [Example 57, 6-chloro-N-[2-(2-phenoxyphenyl)ethyl]-4-quinazolinamine] | - (- = 0-19% control at 400 ppm) |
| CC(COc1ncnc2ccccc12)c1ccccc1 (centres unmarked) [Example 60, 4-(2-phenylpropoxy)quinazoline] | + (+ = 20-89% control at 400 ppm) |
| Fc1cccc2c(NCC(c3ccccc3)c3ccccc3)ncnc12 [Example 61, N-(2,2-diphenylethyl)-8-fluoro-4-quinazolinamine] | - (- = 0-19% control at 400 ppm) |
| CCc1ccc(CCOc2ncnc3ccccc23)cc1 [Example 65, 4-[2-(4-ethylphenyl)ethoxy]quinazoline] | +++ (+++ = 90-100% control at 100 ppm) |

System: Botrytis cinerea (gray mold)
Assay: Greenhouse Test 1, foliar spray fungicide screen (GRAY MOLD), host grape berries
Type: in vivo
Details: disease control rating, 400 ppm (+++ at 100 ppm)

| SMILES | GRAY MOLD |
| --- | --- |
| Fc1cccc2c(OCCc3ccccc3C(F)(F)F)ncnc12 [Example 56, 8-fluoro-4-[2-[2-(trifluoromethyl)phenyl]ethoxy]quinazoline] | - (- = 0-19% control at 400 ppm) |
| Clc1ccc2ncnc(NCCc3ccccc3Oc3ccccc3)c2c1 [Example 57, 6-chloro-N-[2-(2-phenoxyphenyl)ethyl]-4-quinazolinamine] | - (- = 0-19% control at 400 ppm) |
| CC(COc1ncnc2ccccc12)c1ccccc1 (centres unmarked) [Example 60, 4-(2-phenylpropoxy)quinazoline] | - (- = 0-19% control at 400 ppm) |
| Fc1cccc2c(NCC(c3ccccc3)c3ccccc3)ncnc12 [Example 61, N-(2,2-diphenylethyl)-8-fluoro-4-quinazolinamine] | - (- = 0-19% control at 400 ppm) |
| CCc1ccc(CCOc2ncnc3ccccc23)cc1 [Example 65, 4-[2-(4-ethylphenyl)ethoxy]quinazoline] | - (- = 0-19% control at 400 ppm) |

System: Pseudoperonospora cubensis (downy mildew)
Assay: Greenhouse Test 1, foliar spray fungicide screen (DOWN MDEW), host squash
Type: in vivo
Details: disease control rating, 400 ppm (+++ at 100 ppm)

| SMILES | DOWN MDEW |
| --- | --- |
| Fc1cccc2c(OCCc3ccccc3C(F)(F)F)ncnc12 [Example 56, 8-fluoro-4-[2-[2-(trifluoromethyl)phenyl]ethoxy]quinazoline] | +++ (+++ = 90-100% control at 100 ppm) |
| Clc1ccc2ncnc(NCCc3ccccc3Oc3ccccc3)c2c1 [Example 57, 6-chloro-N-[2-(2-phenoxyphenyl)ethyl]-4-quinazolinamine] | - (- = 0-19% control at 400 ppm) |
| CC(COc1ncnc2ccccc12)c1ccccc1 (centres unmarked) [Example 60, 4-(2-phenylpropoxy)quinazoline] | ++ (++ = 90-100% control at 400 ppm) |
| Fc1cccc2c(NCC(c3ccccc3)c3ccccc3)ncnc12 [Example 61, N-(2,2-diphenylethyl)-8-fluoro-4-quinazolinamine] | - (- = 0-19% control at 400 ppm) |
| CCc1ccc(CCOc2ncnc3ccccc23)cc1 [Example 65, 4-[2-(4-ethylphenyl)ethoxy]quinazoline] | +++ (+++ = 90-100% control at 100 ppm) |

System: Southern corn rootworm (Diabrotica undecimpuctata howardi Barber)
Assay: Mite/insect screen, soil treatment (CRW)
Type: in vivo
Details: Diabrotica; percent mortality; soil treatment, CRW rate 12.00 ppm; read-out: CRW RESULTS %
In short: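 Five 2–3 instar larvae were placed on dry sandy soil with a presoaked corn seed after the soil had received 1 mL of compound solution and dried 6–12 h; cups were kept capped at 23°C. Mortality (%) and phytotoxicity were read after standard exposure. Formulation: acetone/alcohol with emulsifiers, water-diluted.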

| SMILES | mortality at 12 ppm [%] |
| --- | --- |
| Fc1cccc2c(OCCc3ccccc3C(F)(F)F)ncnc12 [Example 56, 8-fluoro-4-[2-[2-(trifluoromethyl)phenyl]ethoxy]quinazoline] | 0 |
| Clc1ccc2ncnc(NCCc3ccccc3Oc3ccccc3)c2c1 [Example 57, 6-chloro-N-[2-(2-phenoxyphenyl)ethyl]-4-quinazolinamine] | 0 |
| Fc1cccc2c(NCC(c3ccccc3)c3ccccc3)ncnc12 [Example 61, N-(2,2-diphenylethyl)-8-fluoro-4-quinazolinamine] | 0 |

Same assay, conditions: Diabrotica; percent mortality; soil treatment, CRW rate 24.00 ppm; read-out: CRW RESULTS %

| SMILES | mortality at 24 ppm [%] |
| --- | --- |
| Fc1cccc2c(OCCc3ccccc3C(F)(F)F)ncnc12 [Example 56, 8-fluoro-4-[2-[2-(trifluoromethyl)phenyl]ethoxy]quinazoline] | 0 |
| Clc1ccc2ncnc(NCCc3ccccc3Oc3ccccc3)c2c1 [Example 57, 6-chloro-N-[2-(2-phenoxyphenyl)ethyl]-4-quinazolinamine] | 0 |
| CC(COc1ncnc2ccccc12)c1ccccc1 (centres unmarked) [Example 60, 4-(2-phenylpropoxy)quinazoline] | 0 |
| Fc1cccc2c(NCC(c3ccccc3)c3ccccc3)ncnc12 [Example 61, N-(2,2-diphenylethyl)-8-fluoro-4-quinazolinamine] | 0 |
| CCc1ccc(CCOc2ncnc3ccccc23)cc1 [Example 65, 4-[2-(4-ethylphenyl)ethoxy]quinazoline] | 0 |

Same assay, conditions: percent mortality; soil treatment, CRW rate 12.00 ppm

| SMILES | CRW RESULTS % [%] |
| --- | --- |
| Clc1ccc2ncnc(NCCc3ccccc3Oc3ccccc3)c2c1 [Example 57, 6-chloro-N-[2-(2-phenoxyphenyl)ethyl]-4-quinazolinamine] | 0 |
| Fc1cccc2c(NCC(c3ccccc3)c3ccccc3)ncnc12 [Example 61, N-(2,2-diphenylethyl)-8-fluoro-4-quinazolinamine] | 0 |

System: southern armyworm (Spodopetra eridania Cramer)
Assay: Mite/insect screen, sprayed squash leaves (SAW)
Type: in vivo
Details: Spodoptera eridania, percent mortality; spray rate 200 ppm; read-out: SAW RESULTS %
In short: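 Mortality and phytotoxicity read after standard exposure periods on sprayed squash: cotyledons for melon aphids and twospotted spider mites, excised leaves placed with southern armyworm larvae. Spray solutions were water dilutions of acetone/alcohol stocks containing TOXIMUL R and S emulsifiers, applied to runoff at 10 psi and air-dried one hour.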

| SMILES | mortality at 200 ppm [%] |
| --- | --- |
| Fc1cccc2c(OCCc3ccccc3C(F)(F)F)ncnc12 [Example 56, 8-fluoro-4-[2-[2-(trifluoromethyl)phenyl]ethoxy]quinazoline] | 0 |
| Clc1ccc2ncnc(NCCc3ccccc3Oc3ccccc3)c2c1 [Example 57, 6-chloro-N-[2-(2-phenoxyphenyl)ethyl]-4-quinazolinamine] | 80 |
| Fc1cccc2c(NCC(c3ccccc3)c3ccccc3)ncnc12 [Example 61, N-(2,2-diphenylethyl)-8-fluoro-4-quinazolinamine] | 0 |

Same assay, conditions: Spodoptera eridania, percent mortality; spray rate 400 ppm; read-out: SAW RESULTS %

| SMILES | mortality at 400 ppm [%] |
| --- | --- |
| Fc1cccc2c(OCCc3ccccc3C(F)(F)F)ncnc12 [Example 56, 8-fluoro-4-[2-[2-(trifluoromethyl)phenyl]ethoxy]quinazoline] | 0 |
| Clc1ccc2ncnc(NCCc3ccccc3Oc3ccccc3)c2c1 [Example 57, 6-chloro-N-[2-(2-phenoxyphenyl)ethyl]-4-quinazolinamine] | 0 |
| CC(COc1ncnc2ccccc12)c1ccccc1 (centres unmarked) [Example 60, 4-(2-phenylpropoxy)quinazoline] | 0 |
| Fc1cccc2c(NCC(c3ccccc3)c3ccccc3)ncnc12 [Example 61, N-(2,2-diphenylethyl)-8-fluoro-4-quinazolinamine] | 0 |
| CCc1ccc(CCOc2ncnc3ccccc23)cc1 [Example 65, 4-[2-(4-ethylphenyl)ethoxy]quinazoline] | 0 |

Same assay, conditions: percent mortality; spray rate 200 ppm

| SMILES | SAW RESULTS % [%] |
| --- | --- |
| Clc1ccc2ncnc(NCCc3ccccc3Oc3ccccc3)c2c1 [Example 57, 6-chloro-N-[2-(2-phenoxyphenyl)ethyl]-4-quinazolinamine] | 100 |
| Fc1cccc2c(NCC(c3ccccc3)c3ccccc3)ncnc12 [Example 61, N-(2,2-diphenylethyl)-8-fluoro-4-quinazolinamine] | 0 |

System: Twospotted spider mites (Tetranychus urticae Koch)
Assay: Mite/insect screen, sprayed squash cotyledons (SM)
Type: in vivo
Details: Tetranychus urticae, percent mortality; spray rate 200 ppm; read-out: SM RESULTS %
In short: (§1)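 Steps: formulate compound in acetone/alcohol 50:50 carrying emulsifiers; dilute with water; spray leaves until runoff on upper and lower surfaces; air-dry one hour; for armyworm, excise two […] leaves into a dish of larvae; after exposure, score mortality and plant injury.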

| SMILES | mortality at 200 ppm [%] |
| --- | --- |
| Fc1cccc2c(OCCc3ccccc3C(F)(F)F)ncnc12 [Example 56, 8-fluoro-4-[2-[2-(trifluoromethyl)phenyl]ethoxy]quinazoline] | 40 |
| Clc1ccc2ncnc(NCCc3ccccc3Oc3ccccc3)c2c1 [Example 57, 6-chloro-N-[2-(2-phenoxyphenyl)ethyl]-4-quinazolinamine] | 0 |
| Fc1cccc2c(NCC(c3ccccc3)c3ccccc3)ncnc12 [Example 61, N-(2,2-diphenylethyl)-8-fluoro-4-quinazolinamine] | 0 |

Same assay, conditions: Tetranychus urticae, percent mortality; spray rate 400 ppm; read-out: SM RESULTS %

| SMILES | mortality at 400 ppm [%] |
| --- | --- |
| Fc1cccc2c(OCCc3ccccc3C(F)(F)F)ncnc12 [Example 56, 8-fluoro-4-[2-[2-(trifluoromethyl)phenyl]ethoxy]quinazoline] | 0 |
| Clc1ccc2ncnc(NCCc3ccccc3Oc3ccccc3)c2c1 [Example 57, 6-chloro-N-[2-(2-phenoxyphenyl)ethyl]-4-quinazolinamine] | 0 |
| CC(COc1ncnc2ccccc12)c1ccccc1 (centres unmarked) [Example 60, 4-(2-phenylpropoxy)quinazoline] | 100 |
| Fc1cccc2c(NCC(c3ccccc3)c3ccccc3)ncnc12 [Example 61, N-(2,2-diphenylethyl)-8-fluoro-4-quinazolinamine] | 0 |
| CCc1ccc(CCOc2ncnc3ccccc23)cc1 [Example 65, 4-[2-(4-ethylphenyl)ethoxy]quinazoline] | 100 |

Same assay, conditions: percent mortality; spray rate 200 ppm

| SMILES | SM RESULTS % [%] |
| --- | --- |
| Clc1ccc2ncnc(NCCc3ccccc3Oc3ccccc3)c2c1 [Example 57, 6-chloro-N-[2-(2-phenoxyphenyl)ethyl]-4-quinazolinamine] | 0 |
| Fc1cccc2c(NCC(c3ccccc3)c3ccccc3)ncnc12 [Example 61, N-(2,2-diphenylethyl)-8-fluoro-4-quinazolinamine] | 0 |

System: melon aphids (Aphis gossypii Glover)
Assay: Mite/insect screen, sprayed squash cotyledons (MA)
Type: in vivo
Details: Aphis gossypii, percent mortality; spray rate 200 ppm; read-out: MA RESULTS %
In short: as §1

| SMILES | mortality at 200 ppm [%] |
| --- | --- |
| Fc1cccc2c(OCCc3ccccc3C(F)(F)F)ncnc12 [Example 56, 8-fluoro-4-[2-[2-(trifluoromethyl)phenyl]ethoxy]quinazoline] | 100 |
| Clc1ccc2ncnc(NCCc3ccccc3Oc3ccccc3)c2c1 [Example 57, 6-chloro-N-[2-(2-phenoxyphenyl)ethyl]-4-quinazolinamine] | 0 |
| Fc1cccc2c(NCC(c3ccccc3)c3ccccc3)ncnc12 [Example 61, N-(2,2-diphenylethyl)-8-fluoro-4-quinazolinamine] | 0 |

Same assay, conditions: Aphis gossypii, percent mortality; spray rate 400 ppm; read-out: MA RESULTS %

| SMILES | mortality at 400 ppm [%] |
| --- | --- |
| Fc1cccc2c(OCCc3ccccc3C(F)(F)F)ncnc12 [Example 56, 8-fluoro-4-[2-[2-(trifluoromethyl)phenyl]ethoxy]quinazoline] | 0 |
| Clc1ccc2ncnc(NCCc3ccccc3Oc3ccccc3)c2c1 [Example 57, 6-chloro-N-[2-(2-phenoxyphenyl)ethyl]-4-quinazolinamine] | 0 |
| CC(COc1ncnc2ccccc12)c1ccccc1 (centres unmarked) [Example 60, 4-(2-phenylpropoxy)quinazoline] | 100 |
| Fc1cccc2c(NCC(c3ccccc3)c3ccccc3)ncnc12 [Example 61, N-(2,2-diphenylethyl)-8-fluoro-4-quinazolinamine] | 0 |
| CCc1ccc(CCOc2ncnc3ccccc23)cc1 [Example 65, 4-[2-(4-ethylphenyl)ethoxy]quinazoline] | 100 |

Same assay, conditions: percent mortality; spray rate 200 ppm

| SMILES | MA RESULTS % [%] |
| --- | --- |
| Clc1ccc2ncnc(NCCc3ccccc3Oc3ccccc3)c2c1 [Example 57, 6-chloro-N-[2-(2-phenoxyphenyl)ethyl]-4-quinazolinamine] | 0 |
| Fc1cccc2c(NCC(c3ccccc3)c3ccccc3)ncnc12 [Example 61, N-(2,2-diphenylethyl)-8-fluoro-4-quinazolinamine] | 0 |
